Results on 87 compounds are retold here after a melting point compilation (Tetko et al.; mined from patent text by program, amines drawn as free bases though some values may be those of a salt).

In the case of `COc1cc(N2CCC(Br)C2=O)ccc1Cl` (configuration not stated), the melting point – broadly, the temperature of the solid-liquid transition – was in the range of 113 to 115 °C.

For the compound `CCCN1CCCC(NC(=O)C(Cc2ccc(OCc3ccccc3)cc2)NC(=O)C(CC(C)C)N(C)Cc2ccc(N(C)C)cc2)C1` (configuration not stated), the melting point lay within 131 to 133 °C.

In turn, `CCOC(=O)c1nccc2c(C)c3c(cc12)c1cc(OC)ccc1n3CC` returned a melting point of 149 °C. `COc1ccc(/C=C(\C#N)c2ccc(Br)cc2)cc1OC1CCCC1` came in with a melting point of 116 to 119 °C. Regarding `CC=C1CCC2C3CCC4CC(O)C(OCC)CC4(C)C3C(N(C)C)CC12C` (configuration not stated), the melting point was in the range of 63 to 78 °C. For `O=C1Nc2cccnc2N(C(=O)N2CCC(CCCN3CCCCC3)CC2)c2ccccc21`, the melting point turned out to be 200 °C. The figure for `COC(=O)C(=O)c1cc(Cl)c(OCCOc2ccc3ccccc3c2)c(Cl)c1` is 120 to 121 °C; for `CC(C)Cc1ccc(-c2ccccc2C(C)C(=O)O)cc1` (configuration not stated) it is 76 to 77 °C. In turn, `Cc1c(-c2ncncc2Cl)ssc1=S` displayed a melting point of 100 °C. Next, `O=S(=O)(Nc1ncnc(Cl)c1-c1ccc(-c2ccccc2)cc1)c1ccc(Cl)cc1`: 234 to 235 °C.

`COc1cccc([C@H]2O[C@H](CC(=O)NCc3ccoc3C(=O)O)C(=O)N(CC(C)(C)CO)c3ccc(Cl)cc32)c1OC`: the melting point fell in the range of 125 to 128 °C. In turn, `CCN1C(=O)C(C)(C)C(=O)N(C)c2cc(CN(CCc3cccnc3)Cc3scnc3C)ccc21` registered a melting point of 118 to 120 °C. For the compound `OCCc1nccn1CCCCc1ccc(OCc2coc(/C=C/c3ccc(F)cc3F)n2)cc1`, the melting point fell in the range of 93 to 95 °C.

`O=C(CCS)NC1(C(=O)O)CCCC1` returned a melting point of 127 to 128 °C. The figure for `CC(C)(C)c1cc(SCCC(=O)NC23CC4CC(CC(C4)C2)C3)cc(C(C)(C)C)c1O` is 172 to 174 °C; for `COc1cc(C2CCN(C(=O)C3CCN3)CC2)ccc1Nc1ncc2ccc(-c3ccccc3N(C)S(C)(=O)=O)n2n1` (configuration not stated) it is 111 to 116 °C. The figure for `O=C(Nc1c(C(O)(C(F)(F)F)C(F)(F)F)ccc2ccccc12)c1ccc(Br)cc1` is 155 to 156 °C. For `COc1cc2c(Nc3ccc(Cl)cc3F)ncnc2cc1OCCCSc1nccn1C`, the melting point was 199 to 201 °C. With `CCOC(=O)C(C#N)C1(C#N)C(=O)N(Cc2ccc(C)cc2)c2c(C)cccc21` (configuration not stated), the melting point fell in the range of 128 to 130 °C.

`COc1ccc(C2=NNS(=O)(=O)Cc3cc4nsnc4cc32)cc1` showed a melting point of 225 to 227 °C. Next, `COC(=O)c1ccc(C#CC(C)(O)c2ccc3c(c2)C(C)(C)CCC3(C)C)cc1O` (configuration not stated): 110 to 115 °C; `Cn1ccc(-c2cccc(C=O)n2)n1`: 98 to 100 °C; `Cc1cc(CC2(Cc3ccnc(C)c3)c3ccccc3-c3ncccc32)ccn1`: 177 to 179 °C. The figure for `CCOCCN(C(=O)Nc1ccc(C(=O)O)cc1)c1ccc2c(c1)C(C)(C)CCC2(C)C` is 82 to 85 °C.

As for `Cn1c(COc2ccc(CC3SC(=O)NC3=O)cc2)nc2ccc(Oc3ccc(NC(=S)NC4CCCCC4)cc3)cc21` (configuration not stated), the melting point is 173 to 174 °C.

Compound `N#CC(c1ccccn1)C1CCCCC1O` (configuration not stated) yielded a melting point of 110 to 112 °C. As for `CCCCOC(=O)COc1ccc(C(=O)Nc2ccccc2Sc2cc(OC)ccc2-c2nnn[nH]2)cc1`, the melting point was in the range of 169 to 171 °C. Turning to `CCCCOc1cc(/C=C(\OC)C(=O)O)ccc1CCCc1ccc(OS(=O)(=O)CCCC)c(OC)c1`, the melting point turned out to be 72.5 °C.

With `Cc1cc(C)c2nc(C)n(Cc3ccc(NCC4CCN(C5CCOCC5)CC4)cc3)c2n1`, the melting point was in the range of 148 to 150 °C. `CCCCCNc1nc(C)c(C(=O)c2ccc(Cl)c([N+](=O)[O-])c2)s1`: the melting point lay within 99 to 104 °C. The compound `CC(C)(C)c1cc(C(=O)COc2ccc(Cl)cc2Oc2ccc(Cl)cc2Cl)cc(C(C)(C)C)c1O` gave a melting point of 111 to 114 °C. Take `CC(C)(C)OC(=O)NC1CCN(c2ccc(C(=O)O)cc2)CC1`: the melting point is > 300 °C. Regarding `COC(=O)c1ccc(Cl)nc1OC`, the melting point was in the range of 68 to 69 °C.

The compound `Cn1c(C(F)(F)F)cc(=O)n(-c2cc(C=O)c(Cl)cc2F)c1=O` yielded a melting point of 172 to 174 °C. Turning to `O=S(=O)(c1ccc(Br)cc1)N1C=CC=NC=C1`, the melting point was 95 to 97 °C. The compound `CC(C)c1ncc(C(=O)O)nc1C(C)C` gave a melting point of 128 to 130 °C.

Take `CC(=O)Nc1c(O)cc(C(=O)O)cc1[N+](=O)[O-]`: the melting point lay within 215 to 220 °C. The figure for `CNC(=O)ON=CC=NOC(C)=O` is 138 °C; for `CC(Cc1ccc(C(=O)N[C@@H](CCC(=O)O)C(=O)O)cc1)C1CNc2nc(N)nc(O)c2C1` (some centres not stated) it is > 250 °C. The figure for `CC(C)(C)NC(=O)[C@@H]1C[C@H](O)CN1C(=O)OCc1ccccc1` is 129 to 130 °C; for `O=C(NC1CC1)c1ccc(-c2ccc3nnn(Cc4ccc5ncccc5c4)c3n2)cc1Cl` it is 197 to 199 °C. Next, `c1ccc(C2=c3cc4c(cc3Oc3ccccc32)=C(c2ccccc2)c2ccccc2O4)cc1`: 419 °C; `O=C(Cc1c[nH]cn1)NC(P(=O)(O)O)P(=O)(O)O`: 247 to 250 °C. The compound `O=C(CCNc1c(C(=O)O)[nH]c2cc(Cl)ccc12)c1ccc(F)cc1` returned a melting point of 248 to 250 °C. `COC(=O)C12CCc3ccccc3C1=NN(C(=O)Nc1ccc(C(F)(F)F)cc1)C2` (configuration not stated) had a melting point of 177 to 180 °C.

As to `O=c1[nH]c2cc(Cl)ccc2c(O)c1-c1cccc(Cc2ccccc2)c1`, the melting point lay within 304 to 306 °C. The figure for `COc1cccc2c(Nc3ccccc3C)c(C(C)=O)cnc12` is 171 to 173 °C. Next, `C=C(C)C(=O)N(NC(=O)c1ccccc1)C(C)(C)C`: 148 to 152 °C; `COc1cc2nc(C)nc(Cl)c2cc1OC`: 182 to 184 °C; `Cc1csc(-c2cccnc2)n1`: 42 to 43 °C. As for `O=C(Nc1c(C(O)(C(F)(F)F)C(F)(F)F)ccc2ccccc12)c1ccccc1`, the melting point was 190 to 192 °C. Take `COc1ccc(C2CNC(=O)C2)cc1I` (configuration not stated): the melting point was determined as 158 °C.

The compound `NC(=O)C1CCCc2c(C(=O)O)cccc21` (configuration not stated) registered a melting point of 247 to 249 °C.

For the compound `Cc1ccc(-c2ccc(C(=O)Nc3ccc4nc(CN5C(C)(C)CCCC5(C)C)ccc4c3)cc2)cc1`, the melting point was 242 to 243 °C.

Turning to `Cc1ccc(Cc2cnc(NCCCN(c3ccccc3)c3ccccn3)[nH]c2=O)cn1`, the melting point is 216 to 218 °C. Next, `COC(=O)NNC(=S)Cc1cc(OC)c(OC)c(OC)c1`: 134 °C; `COC(=O)Cc1cc(=O)[nH]c2cc(F)ccc12`: 255 to 256 °C; `Cc1cc(Cn2cc(C(F)(F)C(F)(F)F)c(C(F)(F)C(F)(F)F)n2)ccc1NC(=O)c1cccc(Br)c1C(=O)N[C@@H](C)CS(C)=O` (some centres not stated): 127 to 129 °C. Compound `COc1ccc(Cc2nc(NCCO)c3c(C)c(C#N)sc3n2)cc1OC` registered a melting point of 149 to 151 °C. `N#CC1=C(C2CCNCC2)Nc2n[nH]cc2C1c1cccc(C#N)c1Br` (configuration not stated): the melting point is > 270 °C. Next, `Cc1ccc(CC2CCN(C(=O)C(=O)O)CC2)cc1`: 133 to 135 °C.

`CC1CNc2c3c(nc4cccc(c24)O1)CCCC3` (configuration not stated) had a melting point of 169 to 170 °C. As for `COc1ccc(CCNc2cc(-c3ccco3)nc(-c3nccs3)n2)cc1OC`, the melting point fell in the range of 83 to 83.8 °C.

`O=C(Nc1cccc(Br)c1)NC1C(=O)N(CC23CC4CC(CC(C4)C2)C3)c2ccccc2N(c2ccccc2)C1=O` (configuration not stated) displayed a melting point of 254 °C. Next, `Cc1c(NC(=O)CC(C)(C)C)cc2c(c1C)OC(C)(C)C2c1ccco1` (configuration not stated): 126 to 127 °C; `O=C(CNC(=O)c1ccc(/C=C/C(c2cc(Cl)c(Cl)c(Cl)c2)C(F)(F)F)cc1Cl)NCC(F)(F)F` (configuration not stated): 83 to 85 °C; `COc1cc(OC)nc(NC(=O)NS(=O)(=O)c2c3c(Cl)cccc3nn2C)n1`: 171 to 172 °C. On to `CCOc1ccc(-c2ncc[nH]2)cc1`, for which the melting point lay in the range of 168 to 169 °C.

`NC(=O)NCCSc1ccc2nccn2n1` gave a melting point of 216 to 217 °C. Consider `O=c1c2ccccc2sc2cc(OCC3CO3)cc(O)c12` (configuration not stated), for which the melting point was 161 °C.

Turning to `Cc1sc(CCc2ccc(C=CC=O)cc2)nc1-c1ccccc1`, the melting point fell in the range of 94 to 95 °C. The compound `CNC(=O)C1C(C)(C)C1(C)C` gave a melting point of 98 °C. Compound `Cc1oc(-c2ccccc2)nc1CCC(N)=S` came in with a melting point of 167 to 168 °C.

`Cc1ccc(S(=O)(=O)NCCCCOc2ccc(-n3cccc3)cc2)cc1`: the melting point was 124 to 126 °C. Regarding `CC(C)c1ccc(N(Cc2ccc(Cl)cc2)C(=O)C2CCCc3ccccc32)cc1` (configuration not stated), the melting point lay in the range of 122 to 123 °C. For `CCC(=O)C(C)Oc1cc(C(=O)OC)ccc1OC` (configuration not stated), the melting point lay within 63 to 65 °C. Next, `CC(=O)Nc1ccn([C@@H]2[C@H](O)[C@H](O)CC[C@H]2OC(C)=O)c(=O)n1` (racemic): 249 °C; `CCc1ncnc(NC2CCC(c3ccc(Oc4ccc(C(F)(F)F)cn4)cc3)CC2)c1Cl` (configuration not stated): 114 to 116 °C. On to `COC(=O)c1ncn(C2OC(COC(=O)c3ccccc3)C(OC(=O)c3ccccc3)C2OC(=O)c2ccccc2)n1` (configuration not stated), for which the melting point was 137 to 139 °C. In turn, `CC(C)(C)C(=O)Oc1cccc2c1C(=O)c1c(OC(=O)C(C)(C)C)cccc1C2C(=O)c1ccccc1` had a melting point of 191 °C. The compound `CCCCCCCCCCCCCCCCCCOC(=O)C1CCC2OC2C1` (configuration not stated) yielded a melting point of 32 to 34 °C. `N#Cc1cnn2c1N(C(=O)CN1CCN(C(=O)Nc3cccc(C(F)(F)F)c3)CC1)CC=C2c1cccc(C(F)(F)F)c1` came in with a melting point of 147 to 149 °C. The compound `CCOC(=O)c1nc(C)oc1C(=O)NC(C)(C)C` showed a melting point of 152 to 155 °C. In turn, `Nc1nc(Cl)cnc1-c1cc(Cl)cc(Cl)c1Cl` registered a melting point of 211 to 214 °C.

As for `CC1=C(O)C(=O)C(C)C1` (configuration not stated), the melting point lay in the range of 92 to 93 °C. `CC(=O)c1cccc([N+](=O)[O-])c1Cl` had a melting point of 41 to 43 °C. Compound `Cc1nc2ncnn2c(Cl)c1C1CCCC1` yielded a melting point of 87 °C.
